Earlier results in patent US20100221334A1, “COMPOSITIONS INCLUDING LEUKOTRIENE ANTAGONISTS AND NSAIDS AND METHODS OF USING THE SAME” (priority 2007, published 2010).

Conditions: general statement on long-acting NSAIDs; species not given

Row | pharmacokinetic half-life | Compound
1 | about 6 hours | CC(C(=O)O)c1ccc(-c2ccccc2)c(F)c1 (stereo not shown) [flurbiprofen]
2 | about 7 hours | CCc1cccc2c3c([nH]c12)C(CC)(CC(=O)O)OCC3 (stereo not shown) [etodolac]
3 | up to 4 hours | Cc1cccc(Nc2ccccc2C(=O)O)c1C [mefenamic acid]
4 | 8 to 9 h | O=C(c1ccccc1)c1ccc2n1CCC2C(=O)O (stereo not shown) [ketorolac]
